Tests used:
Type in all cases: functional
LOX IMVI [1] = test: Growth inhibition of human LOX IMVI cells incubated for 48 hrs by sulforhodamine B assay
HL-60(TB) [2] = test: Growth inhibition of human HL-60(TB) cells assessed as cell growth at 1 uM incubated for 48 hrs by sulforhodamine B assay relative to control; settings: read-out: Activity
SK-OV-3 = test: Growth inhibition of human SK-OV-3 cells assessed as cell growth at 100 uM incubated for 48 hrs by sulforhodamine B assay relative to control; settings: read-out: Activity
NCI-H460 = test: Growth inhibition of human NCI-H460 cells assessed as cell growth at 0.1 uM incubated for 48 hrs by sulforhodamine B assay relative to control; settings: read-out: Activity
COLO 205 = test: Growth inhibition of human COLO 205 cells assessed as cell growth at 1 uM incubated for 48 hrs by sulforhodamine B assay relative to control; settings: read-out: Activity
Malme-3M [3] = test: Growth inhibition of human Malme-3M cells assessed as cell growth at 1 uM incubated for 48 hrs by sulforhodamine B assay relative to control; settings: read-out: Activity
K562 = test: Growth inhibition of human K562 cells assessed as cell growth at 100 uM incubated for 48 hrs by sulforhodamine B assay relative to control; settings: read-out: Activity
SNB-19 [4] = test: Growth inhibition of human SNB-19 cells incubated for 48 hrs by sulforhodamine B assay
786-0 = test: Growth inhibition of human 786-0 cells assessed as cell growth at 100 uM incubated for 48 hrs by sulforhodamine B assay relative to control; settings: read-out: Activity
A549 = test: Growth inhibition of human A549/ATCC cells assessed as cell growth at 100 uM incubated for 48 hrs by sulforhodamine B assay relative to control; settings: read-out: Activity
T47D = test: Growth inhibition of human T47D cells assessed as cell growth at 100 uM incubated for 48 hrs by sulforhodamine B assay relative to control; settings: read-out: Activity
LOX IMVI [5] = test: Growth inhibition of human LOX IMVI cells assessed as cell growth at 100 uM incubated for 48 hrs by sulforhodamine B assay relative to control; settings: read-out: Activity
HOP-62 = test: Growth inhibition of human HOP-62 cells incubated for 48 hrs by sulforhodamine B assay
CAKI-1 [6] = test: Growth inhibition of human CAKI-1 cells assessed as cell growth at 1 uM incubated for 48 hrs by sulforhodamine B assay relative to control; settings: read-out: Activity
SNB-19 [7] = test: Growth inhibition of human SNB-19 cells assessed as cell growth at 0.1 uM incubated for 48 hrs by sulforhodamine B assay relative to control; settings: read-out: Activity
HL-60(TB) [8] = test: Growth inhibition of human HL-60(TB) cells incubated for 48 hrs by sulforhodamine B assay
SW-620 = test: Growth inhibition of human SW-620 cells incubated for 48 hrs by sulforhodamine B assay
OVCAR-4 = test: Growth inhibition of human OVCAR-4 cells assessed as cell growth at 0.01 uM incubated for 48 hrs by sulforhodamine B assay relative to control; settings: read-out: Activity
Malme-3M [9] = test: Growth inhibition of human Malme-3M cells incubated for 48 hrs by sulforhodamine B assay
TK-10 [10] = test: Growth inhibition of human TK-10 cells incubated for 48 hrs by sulforhodamine B assay
SNB-75 = test: Growth inhibition of human SNB-75 cells assessed as cell growth at 1 uM incubated for 48 hrs by sulforhodamine B assay relative to control; settings: read-out: Activity
Hs-578T [11] = test: Growth inhibition of human Hs-578T cells incubated for 48 hrs by sulforhodamine B assay
CAKI-1 [12] = test: Growth inhibition of human CAKI-1 cells assessed as cell growth at 100 uM incubated for 48 hrs by sulforhodamine B assay relative to control; settings: read-out: Activity
MDA-MB-468 = test: Growth inhibition of human MDA-MB-468 cells assessed as cell growth at 0.01 uM incubated for 48 hrs by sulforhodamine B assay relative to control; settings: read-out: Activity
SN12C = test: Growth inhibition of human SN12C cells assessed as cell growth at 100 uM incubated for 48 hrs by sulforhodamine B assay relative to control; settings: read-out: Activity
M14 = test: Growth inhibition of human M14 cells incubated for 48 hrs by sulforhodamine B assay
NCI-H23 = test: Growth inhibition of human NCI-H23 cells assessed as cell growth at 0.1 uM incubated for 48 hrs by sulforhodamine B assay relative to control; settings: read-out: Activity
TK-10 [13] = test: Growth inhibition of human TK-10 cells assessed as cell growth at 0.01 uM incubated for 48 hrs by sulforhodamine B assay relative to control; settings: read-out: Activity
ACHN = test: Growth inhibition of human ACHN cells incubated for 48 hrs by sulforhodamine B assay
KM12 = test: Growth inhibition of human KM12 cells assessed as cell growth at 100 uM incubated for 48 hrs by sulforhodamine B assay relative to control; settings: read-out: Activity
MDA-MB-231 = test: Growth inhibition of human MDA-MB-231 cells assessed as cell growth at 0.01 uM incubated for 48 hrs by sulforhodamine B assay relative to control; settings: read-out: Activity
SK-MEL-2 = test: Growth inhibition of human SK-MEL-2 cells assessed as cell growth at 0.1 uM incubated for 48 hrs by sulforhodamine B assay relative to control; settings: read-out: Activity
Hs-578T [14] = test: Growth inhibition of human Hs-578T cells assessed as cell growth at 100 uM incubated for 48 hrs by sulforhodamine B assay relative to control; settings: read-out: Activity
[15] = read-out: LC50 (the source's name)
[16] = read-out: pLC50 (the source's name) (converted)

CC(=O)Nc1cc(CCl)cc(NC(=O)c2ccc(C(=O)Nc3cccc(NC(=O)CCCN(C)C)c3)cc2)c1
GI50 (LOX IMVI [1]; read-out: GI50): > 100 µM | LC50 (concentration giving 50% cell kill) (LOX IMVI [1]; read-out: LC50): > 100 µM | TGI (LOX IMVI [1]; read-out: TGI): > 100 µM | GI50 (LOX IMVI [1]; read-out: pGI50 (converted)): > 100 µM | LC50 (concentration giving 50% cell kill) (LOX IMVI [1]; read-out: pLC50 (converted)): > 100 µM | TGI (LOX IMVI [1]; read-out: pTGI): > 100 µM | growth at 1 µM (HL-60(TB) [2]): 99% | growth at 100 µM (SK-OV-3): 109% | growth at 0.1 µM (NCI-H460): 106% | growth at 1 µM (COLO 205): 109% | growth at 1 µM (Malme-3M [3]): 97% | growth at 100 µM (K562): 106% | GI50 (SNB-19 [4]; read-out: GI50): > 100 µM | CC50 (SNB-19 [4]; [15]): > 100 µM | TGI (SNB-19 [4]; read-out: TGI): > 100 µM | GI50 (SNB-19 [4]; read-out: pGI50 (converted)): > 100 µM | CC50 (SNB-19 [4]; [16]): > 100 µM | TGI (SNB-19 [4]; read-out: pTGI): > 100 µM | growth at 100 µM (786-0): 122% | growth at 100 µM (A549): 88% | growth at 100 µM (T47D): 71% | growth at 100 µM (LOX IMVI [5]): 75% | GI50 (HOP-62; read-out: GI50): > 100 µM | CC50 (HOP-62; [15]): > 100 µM | TGI (HOP-62; read-out: TGI): > 100 µM | GI50 (HOP-62; read-out: pGI50 (converted)): > 100 µM | CC50 (HOP-62; [16]): > 100 µM | TGI (HOP-62; read-out: pTGI): > 100 µM | growth at 1 µM (CAKI-1 [6]): 95% | growth at 0.1 µM (SNB-19 [7]): 104% | GI50 (HL-60(TB) [8]; read-out: GI50): > 100 µM | LC50 (HL-60(TB) [8]; read-out: LC50): > 100 µM | TGI (HL-60(TB) [8]; read-out: TGI): > 100 µM | GI50 (HL-60(TB) [8]; read-out: pGI50 (converted)): > 100 µM | LC50 (HL-60(TB) [8]; read-out: pLC50 (converted)): > 100 µM | TGI (HL-60(TB) [8]; read-out: pTGI): > 100 µM | GI50 (SW-620; read-out: GI50): > 100 µM | LC50 (SW-620; read-out: LC50): > 100 µM | TGI (SW-620; read-out: TGI): > 100 µM | GI50 (SW-620; read-out: pGI50 (converted)): > 100 µM | LC50 (SW-620; read-out: pLC50 (converted)): > 100 µM | TGI (SW-620; read-out: pTGI): > 100 µM | growth at 0.01 µM (OVCAR-4): 99% | GI50 (Malme-3M [9]; read-out: GI50): > 100 µM | LC50 (concentration killing 50% of cells) (Malme-3M [9]; read-out: LC50): > 100 µM | TGI (Malme-3M [9]; read-out: TGI): > 100 µM | GI50 (Malme-3M [9]; read-out: pGI50 (converted)): > 100 µM | LC50 (concentration killing 50% of cells) (Malme-3M [9]; read-out: pLC50 (converted)): > 100 µM | TGI (Malme-3M [9]; read-out: pTGI): > 100 µM | GI50 (TK-10 [10]; read-out: GI50): > 100 µM | CC50 (TK-10 [10]; [15]): > 100 µM | TGI (TK-10 [10]; read-out: TGI): > 100 µM | GI50 (TK-10 [10]; read-out: pGI50 (converted)): > 100 µM | CC50 (TK-10 [10]; [16]): > 100 µM | TGI (TK-10 [10]; read-out: pTGI): > 100 µM | growth at 1 µM (SNB-75): 78% | GI50 (Hs-578T [11]; read-out: GI50): > 100 µM | CC50 (Hs-578T [11]; [15]): > 100 µM | TGI (Hs-578T [11]; read-out: TGI): > 100 µM | GI50 (Hs-578T [11]; read-out: pGI50 (converted)): > 100 µM | CC50 (Hs-578T [11]; [16]): > 100 µM | TGI (Hs-578T [11]; read-out: pTGI): > 100 µM | growth at 100 µM (CAKI-1 [12]): 100% | growth at 0.01 µM (MDA-MB-468): 90% | growth at 100 µM (SN12C): 102% | GI50 (M14; read-out: GI50): > 100 µM | CC50 (M14; [15]): > 100 µM | TGI (M14; read-out: TGI): > 100 µM | GI50 (M14; read-out: pGI50 (converted)): > 100 µM | CC50 (M14; [16]): > 100 µM | TGI (M14; read-out: pTGI): > 100 µM | growth at 0.1 µM (NCI-H23): 98% | growth at 0.01 µM (TK-10 [13]): 99% | GI50 (ACHN; read-out: GI50): > 100 µM | CC50 (ACHN; [15]): > 100 µM | TGI (ACHN; read-out: TGI): > 100 µM | GI50 (ACHN; read-out: pGI50 (converted)): > 100 µM | CC50 (ACHN; [16]): > 100 µM | TGI (ACHN; read-out: pTGI): > 100 µM | growth at 100 µM (KM12): 88% | growth at 0.01 µM (MDA-MB-231): 103% | growth at 0.1 µM (SK-MEL-2): 111% | growth at 100 µM (Hs-578T [14]): 107%
